Key:
[1] = test system: voltage-gated Na+ channels; format: cell-based, human
[2] = test system: undifferentiated C4 cells; experiment: OCT4 qRT-PCR assay for undifferentiated cells; format: cell-based, human; conditions: D14, D21 and D28 after quercetin treatment (40 μM at D9 for 16 hours)
Procedure: (§1) For colony forming assay, each cell dilution was cultured for 6 days in E8 medium and pluripotent colonies were identified by AP staining. For the quercetin removal of undifferentiated cells, cells were treated with 40 μM quercetin for 16 hours and cultured in fresh E8 medium. For fluorescence activated cell sorting (FACS), C4 cells were dissociated using TrypLE and filtered through a 70 μm cell strainer. Single cell suspensions were first fixed with 4% formaldehyde for 10 mins and suspended in permeabilization buffer for 15 min on ice. After blocking for 30 min, cells were incubated with primary labeled antibodies (PE conjugated anti SSEA-4, TRA-1-60) for 1 hour on ice in the dark. After washing with PBS with 1% FBS, FACS analysis was performed using a BD Accuri C6 system (BD Bioscience) and data analyses were carried out according to manufacturer's instructions. Fluorochrome matched isotype controls were used and subtracted during analysis. For qRT-PCR assay, total RNA from all dilutions was extracted and subjected to qRT-PCR to determine OCT4 cycle times (Ct) value. OCT4 copy numbers were calculated from the equation curve that was generated from qRT-PCR of purified OCT4 partial sequence. Then, OCT4 copy numbers were plotted against PSC numbers.

[3] = test system: NANOG+ undifferentiated cells; experiment: NANOG immunostaining of D14 cells; format: cell-based, human; conditions: D14, with quercetin treatment
Procedure: hiPSC derived dopaminergic neurons were washed with phosphate-buffered saline (PBS) (with Ca^2+ and Mg^2+) and fixed with 4% formaldehyde in PBS (pH 7.4) for 10 mins. Cells were incubated for 1 hr in blocking solution (0.3% Triton X-100 and 1% horse serum in PBS) at room temperature. Cells were incubated with primary antibodies in PBS containing 0.3% Triton X-100 and 1% horse serum overnight. Cells were then incubated with the proper fluorescence-conjugated secondary antibodies with Hoechst 33342 for nuclei staining at room temperature for 1 hr. Cell images were obtained by confocal microscopy (KEYENCE, Osaka, Japan). Data regarding specific cell populations were determined from microscopic images using ImageJ software (11). To measure apoptotic cells, cells were stained for cleaved caspase 3, an apoptotic marker, and Hoechst 33342, a DNA-binding nuclear dye. After staining with Hoechst 33342, compacted chromatin is brighter than in normal cells, and the condensed nuclei were counted by fluorescence microscopy. Data regarding specific cell populations were determined from microscopic images by ImageJ software.

undifferentiated iPSCs = experiment: Residual undifferentiated iPSCs in final cell product (immunostaining and real-time PCR); format: cell-based, human; conditions: final cell products at day 28 after quercetin
Description: After treatment with quercetin, the final cell products (at day 28) had no detectable remaining undifferentiated iPSCs (with an upper boundary of the 95% confidence interval of <1 undifferentiated cell per 1 billion day-28 differentiated cells), on the basis of immunostaining and real-time polymerase chain reaction-based assays. Serotonergic neurons, a potential cause of graft-induced dyskinesia (Olanow et al. Ann Neurol 2003; 54:403-14), were not detected in the final product.

[4] = test system: D9 C4 cells (mostly neuronal precursors); experiment: Quercetin treatment of D9 differentiating cells, outcome on D11; format: cell-based, human; conditions: different concentrations (5-100 μM) for 16 hours on D9
Description: The most critical issue for hPSC-based cell therapy is to establish safety by removing residual undifferentiated cells with neoplastic potential. Based on the previous finding that BIRC5 (encoding survivin) is highly expressed in hPSCs compared to somatic cells (40), we hypothesized that chemical inhibition of survivin would selectively eliminate remaining undifferentiated hiPSCs. However, since survivin is known to be important for neuronal precursors (41, 42), it is important to test whether this strategy interferes with mDAP generation. Among survivin inhibitors (40), we chose the flavonoid quercetin (3,3′,4′,5,7-pentahydroxyflavone) because this natural compound is present at high concentration in commonly consumed vegetables and fruits (43). We first treated 100,000 undifferentiated C4 cells with 5, 10, 20, 40, and 100 μM quercetin for 2, 6, 16, and 24 hours. After washing with fresh media, cells were further cultured for a total of 48 hours. […] To test whether quercetin affects survival of mDAPs, we treated D9 C4 cells (mostly neuronal precursors) with different concentrations of quercetin for 16 hours and examined outcome on D11.

[5] = test system: undifferentiated C4 cells (human iPSCs); experiment: Quercetin treatment of undifferentiated hiPSCs (Trypan blue, hemocytometer); format: cell-based
Procedure: To test the effect of Quercetin on human iPSC removal, human iPSCs were plated on 6 well plates. Cells were treated with each concentration of Quercetin (5, 10, 20, 40, and 100 μM) for 2, 6, 16, and 24 hours. After each time point, Quercetin containing medium was replaced with fresh medium and cells cultured for 48 hours from the initial Quercetin treatment time. Cells were dissociated using TrypLE and cell viability was measured using Trypan blue exclusion and hemocytometer.
The most critical issue for hPSC-based cell therapy is to establish safety by removing residual undifferentiated cells with neoplastic potential. Based on the previous finding that BIRC5 (encoding survivin) is highly expressed in hPSCs compared to somatic cells (40), we hypothesized that chemical inhibition of survivin would selectively eliminate remaining undifferentiated hiPSCs. However, since survivin is known to be important for neuronal precursors (41, 42), it is important to test whether this strategy interferes with mDAP generation. Among survivin inhibitors (40), we chose the flavonoid quercetin (3,3′,4′,5,7-pentahydroxyflavone) because this natural compound is present at high concentration in commonly consumed vegetables and fruits (43). We first treated 100,000 undifferentiated C4 cells with 5, 10, 20, 40, and 100 μM quercetin for 2, 6, 16, and 24 hours. […]

[6] = test system: undifferentiated C4 cells; experiment: Colony forming assay (AP staining) of C4 cells diluted among hDFs; format: cell-based, human
Procedure: as §1

NC1=N[C@H](O)[C@H]2[C@H]3O[C@]4(O)O[C@@H]([C@@H](O)[C@@]2(N1)[C@@H]4O)[C@]3(O)CO [TTX, tetrodotoxin]
transient inward currents evoked by voltage pulses from −70 mV to +40 mV [1]: completely blocked

O=c1c(O)c(-c2ccc(O)c(O)c2)oc2cc(O)cc(O)c12 [quercetin, 3,3′,4′,5,7-pentahydroxyflavone]
calculated number of undifferentiated cells [2]: less than 1 cell per 100,000 cells | NANOG+ cells [3]: none were detected | remaining undifferentiated iPSCs, upper boundary of the 95% confidence interval (undifferentiated iPSCs): < 1 undifferentiated cell per 1 billion day-28 differentiated cells | cell viability and cell number at D11 [4]: Neither cell viability nor number was affected | efficiency of elimination of undifferentiated hiPSCs [5]: > 99.99% | viable cells ([5]; 100,000 undifferentiated C4 cells, >20 μM quercetin for >16 hours, cultured for a total of 48 hours): undetectable | AP+ colonies ([6]; 40 μM quercetin for 16 hours, up to 10^5 hiPSCs plated, 6 days culture): no AP′ colonies detected | efficacy of quercetin treatment ([6]; colony forming assay): > 99.99%
